Test system: D2/3R
Test: Kinetic analysis of PET data (1TCM, 2TCM, Logan, SRTM);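 for 2TCM BPND change relative to control: Raclopride 1 mg/kg intravenous pretreatment versus saline controls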;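 for SRTM BPND change relative to control: Raclopride 1 mg/kg intravenous pretreatment versus saline controls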
Assay type: in vivo, Sprague-Dawley rats
Parameters: key to SRTM BPND / 1TCM BPND / 2TCM BPND (VT-based): BPND = VT(target)/VT(cerebellum) − 1 (or SRTM, cerebellum reference); SRTM BPND change relative to control / 1TCM BPND change relative to control / 2TCM BPND change relative to control / Logan BPND change relative to control: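 Raclopride 1 mg/kg intravenous pretreatment versus saline controls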; 1TCM VT / 2TCM VT: unit not given here
Procedure: Kinetic analysis is described using the nomenclature proposed by Innis et al.. ROI TACs of [^18F]FEt-AMC13 were analyzed with one-tissue and two-tissue compartmental models of reversible binding (1TCM and 2TCM, respectively) to obtain individual rate constants. From these, the regional distribution volumes (VT) were calculated and compared to those obtained with Logan graphical analysis. Binding potentials (BPND) were calculated from the distribution ratios as VT (target) / VT (cerebellum) – 1, or estimated with the simplified reference tissue model (SRTM) using the cerebellum as reference region.
Metabolite-corrected plasma-derived arterial input function and whole blood time-activity curve were used for Logan, 1TCM, and 2TCM analyses. Fractional cerebral blood volume was set to 3.6 % [27]. For one rat in the raclopride-treated group, no input curves could be obtained; therefore, its PET data were only analyzed with SRTM.
Degree of D2/3R-specific binding of the tracers was characterized by BPND (as given above) or the specific binding ratio (SBR) given as target region activity/cerebellar activity - 1. Both were calculated under control conditions and in response to the raclopride challenge.

[1] = Brainstem, raclopride, listed as [18F]FEt-AMC13

Structure (SMILES): Oc1ccc2c(c1)O[C@@H](CNCc1ccc(OCC[18F])cc1)CC2 [[^18F]FEt-AMC13]
- fall of striatal BPND (1 mg/kg raclopride, depending on the kinetic model): 18–27%
- 1TCM BPND (Brainstem, control): 0.21±0.03
- 1TCM VT (Brainstem, control): 5.67±0.33
- 2TCM BPND (VT-based) (Brainstem, control): 0.22 ± 0.02
- 2TCM VT (Brainstem, control): 6.17±0.52
- Logan BPND (Brainstem, control): 0.21±0.02
- Logan VT (Brainstem, control): 6.12±0.57
- SRTM BPND (Brainstem, control): 0.18 ± 0.04
- 1TCM K1 (Brainstem, control rat A): 0.63 ± 0.04 mL/g/min
- 1TCM k2 (Brainstem, control rat A): 0.10 ± 0.02 min⁻¹
- 2TCM K1 (Brainstem, control rat A): 2.03 ± 0.40 mL/g/min
- 2TCM k2 (Brainstem, control rat A): 3.53 ± 1.32 min⁻¹
- 2TCM k3 (Brainstem, control rat A): 1.05 ± 0.19 min⁻¹
- 2TCM k4 (Brainstem, control rat A): 0.10 ± 0.01 min⁻¹
- 1TCM K1 (Brainstem, control rat B): 0.60 ± 0.03 mL/g/min
- 1TCM k2 (Brainstem, control rat B): 0.11 ± 0.01 min⁻¹
- 2TCM K1 (Brainstem, control rat B): 0.96 ± 0.11 mL/g/min
- 2TCM k2 (Brainstem, control rat B): 0.89 ± 0.30 min⁻¹
- 2TCM k3 (Brainstem, control rat B): 0.72 ± 0.83 min⁻¹
- 2TCM k4 (Brainstem, control rat B): 0.15 ± 1.20 min⁻¹
- 1TCM K1 (Brainstem, control rat C): 0.68 ± 0.02 mL/g/min
- 1TCM k2 (Brainstem, control rat C): 0.12 ± 0.01 min⁻¹
- 2TCM K1 (Brainstem, control rat C): 1.11 ± 0.22 mL/g/min
- 2TCM k2 (Brainstem, control rat C): 1.19 ± 0.59 min⁻¹
- 2TCM k3 (Brainstem, control rat C): 1.10 ± 1.86 min⁻¹
- 2TCM k4 (Brainstem, control rat C): 0.21 ± 2.66 min⁻¹
- 1TCM K1 (Brainstem, control rat D): 0.71 ± 0.03 mL/g/min
- 1TCM k2 (Brainstem, control rat D): 0.13 ± 0.01 min⁻¹
- 2TCM K1 (Brainstem, control rat D): 4.75 ± 5.87 mL/g/min
- 2TCM k2 (Brainstem, control rat D): 19.6 ± 19.9 min⁻¹
- 2TCM k3 (Brainstem, control rat D): 2.79 ± 15.04 min⁻¹
- 2TCM k4 (Brainstem, control rat D): 0.12 ± 37.81 min⁻¹
- 1TCM BPND (Brainstem, raclopride): 0.13±0.03
- 1TCM BPND change relative to control (Brainstem, raclopride): -41%
- 1TCM VT (Brainstem, raclopride): 4.99±0.56
- 2TCM BPND (VT-based) (Brainstem, raclopride): 0.10 ± 0.02
- 2TCM BPND change relative to control (Brainstem, raclopride): −53%
- 2TCM VT (Brainstem, raclopride): 5.46±0.36
- Logan BPND (Brainstem, raclopride): 0.11±0.02
- Logan BPND change relative to control (Brainstem, raclopride): -47%
- Logan VT (Brainstem, raclopride): 5.53±0.26
- SRTM BPND (Brainstem, raclopride): 0.07 ± 0.03
- SRTM BPND change relative to control (Brainstem, raclopride): −60%
- 2TCM BPND (VT-based) [1]: 0.10±0.02
- 2TCM BPND change relative to control [1]: -53%
- SRTM BPND [1]: 0.07±0.03
- SRTM BPND change relative to control [1]: –60%
- 1TCM VT (Cerebellum, control): 4.68±0.34
- 2TCM VT (Cerebellum, control): 5.08±0.49
- Logan VT (Cerebellum, control): 5.06±0.53
- 1TCM K1 (Cerebellum, control rat A): 0.57 ± 0.04 mL/g/min
- 1TCM k2 (Cerebellum, control rat A): 0.11 ± 0.02 min⁻¹
- 2TCM K1 (Cerebellum, control rat A): 2.10 ± 0.32 mL/g/min
- 2TCM k2 (Cerebellum, control rat A): 4.90 ± 1.30 min⁻¹
- 2TCM k3 (Cerebellum, control rat A): 1.23 ± 0.13 min⁻¹
- 2TCM k4 (Cerebellum, control rat A): 0.10 ± 0.005 min⁻¹
- 1TCM K1 (Cerebellum, control rat B): 0.61 ± 0.02 mL/g/min
- 1TCM k2 (Cerebellum, control rat B): 0.13 ± 0.01 min⁻¹
- 2TCM K1 (Cerebellum, control rat B): 0.81 ± 0.05 mL/g/min
- 2TCM k2 (Cerebellum, control rat B): 0.53 ± 0.24 min⁻¹
- 2TCM k3 (Cerebellum, control rat B): 0.46 ± 0.55 min⁻¹
- 2TCM k4 (Cerebellum, control rat B): 0.20 ± 0.71 min⁻¹
- 1TCM K1 (Cerebellum, control rat C): 0.62 ± 0.01 mL/g/min
- 1TCM k2 (Cerebellum, control rat C): 0.13 ± 0.01 min⁻¹
- 2TCM K1 (Cerebellum, control rat C): 0.86 ± 0.21 mL/g/min
- 2TCM k2 (Cerebellum, control rat C): 1.13 ± 1.45 min⁻¹
- 2TCM k3 (Cerebellum, control rat C): 1.84 ± 1.78 min⁻¹
- 2TCM k4 (Cerebellum, control rat C): 0.34 ± 0.12 min⁻¹
- 1TCM K1 (Cerebellum, control rat D): 0.68 ± 0.03 mL/g/min
- 1TCM k2 (Cerebellum, control rat D): 0.16 ± 0.02 min⁻¹
- 2TCM K1 (Cerebellum, control rat D): 48.7 ± 819.7 mL/g/min
- 2TCM k2 (Cerebellum, control rat D): 298 ± 5152 min⁻¹
- 2TCM k3 (Cerebellum, control rat D): 3.55 ± 1.05 min⁻¹
- 2TCM k4 (Cerebellum, control rat D): 0.13 ± 0.03 min⁻¹
- 1TCM VT (Cerebellum, raclopride): 4.43±0.40
- 2TCM VT (Cerebellum, raclopride): 4.96±0.44
- Logan VT (Cerebellum, raclopride): 4.99±0.30
- 1TCM BPND (Cortex, control): 0.18±0.05
- 1TCM VT (Cortex, control): 5.53±0.38
- 2TCM BPND (VT-based) (Cortex, control): 0.13 ± 0.04
- 2TCM VT (Cortex, control): 5.75±0.45
- Logan BPND (Cortex, control): 0.13±0.03
- Logan VT (Cortex, control): 5.69±0.49
- SRTM BPND (Cortex, control): 0.11 ± 0.03
- 1TCM K1 (Cortex, control rat A): 0.37 ± 0.02 mL/g/min
- 1TCM k2 (Cortex, control rat A): 0.06 ± 0.01 min⁻¹
- 2TCM K1 (Cortex, control rat A): 1.68 ± 0.46 mL/g/min
- 2TCM k2 (Cortex, control rat A): 7.83 ± 1.43 min⁻¹
- 2TCM k3 (Cortex, control rat A): 1.84 ± 0.62 min⁻¹
- 2TCM k4 (Cortex, control rat A): 0.06 ± 4.47 min⁻¹
- 1TCM K1 (Cortex, control rat B): 0.47 ± 0.02 mL/g/min
- 1TCM k2 (Cortex, control rat B): 0.09 ± 0.01 min⁻¹
- 2TCM K1 (Cortex, control rat B): 0.66 ± 0.04 mL/g/min
- 2TCM k2 (Cortex, control rat B): 0.64 ± 0.21 min⁻¹
- 2TCM k3 (Cortex, control rat B): 0.72 ± 0.24 min⁻¹
- 2TCM k4 (Cortex, control rat B): 0.16 ± 0.02 min⁻¹
- 1TCM K1 (Cortex, control rat C): 0.41 ± 0.01 mL/g/min
- 1TCM k2 (Cortex, control rat C): 0.07 ± 0.002 min⁻¹
- 2TCM K1 (Cortex, control rat C): 0.43 ± 0.12 mL/g/min

Source: paper PMC4512978, “Synthesis and evaluation in rats of homologous series of [^18F]-labeled dopamine D2/3 receptor agonists based on the 2-aminomethylchroman scaffold as potential PET tracers” (EJNMMI Research, 2015)
